Columns and labels:
[1] = molecular target: T1, VR1 (rat) (Rattus norvegicus, UniProt O35433); assay: Functional FLIPR Ca2+ inflow assay on rat-species vanilloid receptor 1 in rat dorsal root ganglia cells; assay type: cell-based; conditions: test compound 10 μM; for inhibition at 10 µM / VR1 (rat) (% inhibition compared to 10 μM CP): then 100 nM capsaicin after 5 min, relative to maximum inhibition with 10 μM capsaicin; for inhibition at 10 µM: read-out: VR1 (rat) (% inhibition compared to 10 μM CP); for activation at 10 µM / VR1 (rat) (% stimulation compared to 10 μM CP): Ca2+ signal relative to 10 μM capsaicin (CP); for activation at 10 µM: read-out: VR1 (rat) (% stimulation compared to 10 μM CP)
T1 construct: from tissue; host or cells: primary cells dissociated from rat dorsal root ganglia
From the text: I. Functional Testing Carried Out on the Vanilloid Receptor 1 (VR1/TRPV1 Receptor)
(§1) The agonistic or antagonistic effect of the substances to be tested can be determined on the rat-species vanilloid receptor 1 (VR1/TRPV1) using the following assay. According to this assay, the Ca^2+ inflow is quantified through the receptor channel using a Ca^2+-sensitive dye (type Fluo-4, Molecular Probes Europe BV, Leiden, Netherlands) in a fluorescent imaging plate reader (FLIPR, Molecular Devices, Sunnyvale, USA).
Complete medium: 50 mL HAMS F12 nutrient mixture (Gibco Invitrogen GmbH, Karlsruhe, Germany) with
10% by volume of FCS (foetal calf serum, Gibco Invitrogen GmbH, Karlsruhe, Germany, […]);
2 mM L-glutamine (Sigma, Munich, Germany);
1% by weight of AA solution (antibiotic/antimyotic solution, PAA, Pasching, Austria) and 25 ng/ml NGF medium (2.5 S, Gibco Invitrogen GmbH, Karlsruhe, Germany)
Cell culture plate: Poly-D-lysine-coated, black 96 well plates having a clear base (96 well black/clear plate, BD Biosciences, Heidelberg, Germany) were additionally coated with laminin (Gibco Invitrogen GmbH, Karlsruhe, Germany), the laminin being diluted with PBS (Ca—Mg-free PBS, Gibco Invitrogen GmbH, Karlsruhe, Germany) to a concentration of 100 μg/mL. Aliquots having a laminin concentration of 100 μg/mL were removed and stored at −20° C. The aliquots were diluted with PBS in a ratio of 1:10 to 10 μg/mL laminin and in each case 50 μL of the solution were pipetted into a recess in the cell culture plate. The cell culture plates were incubated for at least two hours at 37° C., the excess solution was removed by suction-filtration and the recesses were each washed twice with PBS. The coated cell culture plates were stored with excess PBS which was not removed until just before the feeding of the cells.
The vertebral column was removed from decapitated rats and placed immediately into cold HBSS buffer (Hank's buffered saline solution, Gibco Invitrogen GmbH, Karlsruhe, Germany), i.e. buffer located in an ice bath, mixed with 1% by volume (percent by volume) of an AA solution (antibiotic/antimyotic solution, PAA, Pasching, Austria). The vertebral column was cut longitudinally and removed together with fasciae from the vertebral canal. Subsequently, the dorsal root ganglia (DRG) were removed and again stored in cold HBSS buffer mixed with 1% by volume of an AA solution. The DRG, from which all blood remnants and spinal nerves had been removed, were transferred in each case to 500 μL of cold type 2 collagenase (PAA, Pasching, Austria) and incubated for 35 minutes at 37° C. After the addition of 2.5% by volume of trypsin (PAA, Pasching, Austria), incubation was continued for 10 minutes at 37° C. After complete incubation, the enzyme solution was carefully pipetted off and 500 μL of complete medium were added to each of the remaining DRG. The DRG were in each case suspended several times, drawn through cannulae No. 1, No. 12 and No. 16 using a syringe and transferred to a 50 mL Falcon tube which was filled up to 15 mL with complete medium. The contents of each Falcon tube was in each case filtered through a 70 μm Falcon filter element and centrifuged for 10 minutes at 1,200 rpm and room temperature. The resulting pellet was in each case taken up in 250 μL of complete medium and the number of cells determined.
The number of cells in the suspension was set to 3×10^5 per mL and 150 μL of this suspension were in each case introduced into a recess in the cell culture plates coated as described hereinbefore. In the incubator the plates were left for two to three days at 37° C., 5% by volume of CO2 and 95% relative humidity. […]

[2] = molecular target: T2, VR1 (human) (Homo sapiens, UniProt Q8NER1); assay: Functional FLIPR Ca2+ inflow assay on VR1 (human), CHO K1 cells stably transfected with the VR1 gene; assay type: cell-based; conditions: test compound 10 μM; for inhibition at 10 µM / activation at 10 µM: CHO-K1; for inhibition at 10 µM / VR1 (human) (% inhibition compared to 10 μM CP): then 100 nM capsaicin after 5 min, relative to maximum inhibition with 10 μM capsaicin; for inhibition at 10 µM: read-out: VR1 (human) (% inhibition compared to 10 μM CP); for activation at 10 µM / VR1 (human) (% stimulation compared to 10 μM CP): Ca2+ signal relative to 10 μM capsaicin (CP); for activation at 10 µM: read-out: VR1 (human) (% stimulation compared to 10 μM CP)
T2 construct: expressed in transfected cells; host or cells: CHO K1 cells (ECACC)
From the text: II. Functional Testing Carried Out on the Vanilloid Receptor (VR1)
as §1, with “can also” for “can”, “the” for “the rat-species”, “(VR1)” for “1 (VR1/TRPV1)”, “the” for “the receptor”
Chinese hamster ovary cells (CHO K1 cells, European Collection of Cell Cultures (ECACC) United Kingdom) were stably transfected with the VR1 gene. For functional testing, these cells were plated out on poly-D-lysine-coated black 96 well plates having a clear base (BD Biosciences, Heidelberg, Germany) at a density of 25,000 cells/well. The cells were incubated overnight at 37° C. and 5% CO2 in a culture medium (Ham's F12 nutrient mixture, 10% by volume of FCS (foetal calf serum), 18 μg/ml L-proline). The next day the cells were incubated with Fluo-4 (Fluo-4 2 μM, 0.01% by volume of Pluronic F127, Molecular Probes in HBSS (Hank's buffered saline solution), Gibco Invitrogen GmbH, Karlsruhe, Germany) for 30 minutes at 37° C. Subsequently, the plates were washed three times with HBSS buffer and after further incubation for 15 minutes at room temperature used for Ca^2+ measurement in a FLIPR assay. The Ca^2+-dependent fluorescence was measured before and after the addition of the substances to be tested (λex wavelength=488 nm, λem=540 nm). Quantification was carried out by measuring the highest fluorescence intensity (FC, Fluorescence Counts) over time.
The FLIPR protocol consists of 2 substance additions. First the compounds to be tested (10 μM) were pipetted onto the cells and the Ca^2+ inflow was compared with the control (capsaicin 10 μM) (% activation based on the Ca^2+ signal after the addition of 10 μM capsaicin). After 5 minutes' incubation, 100 nM of capsaicin were administered and the Ca^2+ inflow was also determined.
Desensitising agonists and antagonists led to suppression of the Ca^2+ inflow. The % inhibition was calculated compared to the maximum achievable inhibition with 10 μM of capsaicin.

T2 sequence (Q8NER1 whole entry): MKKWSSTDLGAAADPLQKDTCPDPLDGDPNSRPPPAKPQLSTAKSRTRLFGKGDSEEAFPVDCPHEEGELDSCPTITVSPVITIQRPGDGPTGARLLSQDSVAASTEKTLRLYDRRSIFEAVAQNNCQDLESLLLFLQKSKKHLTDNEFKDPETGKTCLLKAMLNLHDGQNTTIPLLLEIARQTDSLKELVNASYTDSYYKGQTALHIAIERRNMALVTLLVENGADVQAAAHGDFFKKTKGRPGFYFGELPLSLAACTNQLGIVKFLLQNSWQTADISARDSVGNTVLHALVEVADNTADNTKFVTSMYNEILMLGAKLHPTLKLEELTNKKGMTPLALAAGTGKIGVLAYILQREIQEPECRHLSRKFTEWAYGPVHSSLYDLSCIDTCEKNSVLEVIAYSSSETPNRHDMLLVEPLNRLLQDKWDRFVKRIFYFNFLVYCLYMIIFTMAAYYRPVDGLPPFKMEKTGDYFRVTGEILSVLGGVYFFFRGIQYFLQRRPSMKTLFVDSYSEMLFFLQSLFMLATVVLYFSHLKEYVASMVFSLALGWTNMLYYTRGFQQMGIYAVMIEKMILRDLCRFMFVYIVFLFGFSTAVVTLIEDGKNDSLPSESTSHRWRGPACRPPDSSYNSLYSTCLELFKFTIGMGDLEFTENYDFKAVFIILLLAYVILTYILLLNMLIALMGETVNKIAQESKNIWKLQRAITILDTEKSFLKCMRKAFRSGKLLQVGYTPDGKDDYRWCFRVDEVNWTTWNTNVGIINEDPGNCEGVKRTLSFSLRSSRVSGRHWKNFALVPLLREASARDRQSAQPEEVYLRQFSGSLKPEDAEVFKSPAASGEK
T1 sequence (O35433 whole entry): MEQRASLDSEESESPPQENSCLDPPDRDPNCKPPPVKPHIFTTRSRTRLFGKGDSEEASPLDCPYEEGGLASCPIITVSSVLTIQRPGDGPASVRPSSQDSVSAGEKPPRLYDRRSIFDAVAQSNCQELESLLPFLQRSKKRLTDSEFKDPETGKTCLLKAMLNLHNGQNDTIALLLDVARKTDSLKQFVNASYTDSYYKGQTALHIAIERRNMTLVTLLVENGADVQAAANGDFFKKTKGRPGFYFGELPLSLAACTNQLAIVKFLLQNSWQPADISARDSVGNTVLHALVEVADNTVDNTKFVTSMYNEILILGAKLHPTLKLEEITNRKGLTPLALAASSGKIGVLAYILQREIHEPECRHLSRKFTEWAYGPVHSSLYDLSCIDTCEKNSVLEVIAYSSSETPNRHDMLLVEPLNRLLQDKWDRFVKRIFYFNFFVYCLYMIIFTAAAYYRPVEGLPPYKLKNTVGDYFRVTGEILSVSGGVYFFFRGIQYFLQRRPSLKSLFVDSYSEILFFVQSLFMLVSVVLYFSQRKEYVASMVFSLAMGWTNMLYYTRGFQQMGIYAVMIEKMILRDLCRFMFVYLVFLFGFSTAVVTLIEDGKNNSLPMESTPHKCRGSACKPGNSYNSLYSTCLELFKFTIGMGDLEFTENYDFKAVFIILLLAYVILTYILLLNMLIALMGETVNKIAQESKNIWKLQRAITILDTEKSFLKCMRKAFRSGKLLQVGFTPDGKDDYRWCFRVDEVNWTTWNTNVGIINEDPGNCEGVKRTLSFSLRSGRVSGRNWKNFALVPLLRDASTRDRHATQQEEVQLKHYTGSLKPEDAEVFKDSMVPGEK

inhibition at 10 µM [1] [%]	activation at 10 µM [1] [%]	inhibition at 10 µM [2] [%]	activation at 10 µM [2] [%]	VR1 (rat) (% inhibition compared to 10 μM CP) [1] [%]	VR1 (rat) (% stimulation compared to 10 μM CP) [1] [%]	VR1 (human) (% inhibition compared to 10 μM CP) [2] [%]	VR1 (human) (% stimulation compared to 10 μM CP) [2] [%]	SMILES
71.3	44.7	23.6	20.7					CC(C)(C)C1CCC2(CC1)CC(C(=O)NCc1ccc(N)cc1)=NO2 (stereo not shown) [Example 1, 8-tert-butyl-1-oxa-2-azaspiro[4.5]dec-2-ene-3-carboxylic acid-4-aminobenzylamide]
				100.87	−15.97	58.09	−0.32	CC(C)(C)C1CCC2(CC1)CC(C(=O)NCc1ccc(NS(C)(=O)=O)cc1)=NO2 (stereo not drawn) [Example 2, trans-8-tert-butyl-1-oxa-2-azaspiro[4.5]dec-2-ene-3-carboxylic acid-4-methanesulphonylaminobenzylamide]
				102.62	0.10	80.10	−1.29	CC(C)(C)C1CCC2(CC1)CC(C(=O)NCc1ccc(NS(C)(=O)=O)cc1)=NO2 (stereo not drawn) [Example 3, cis-8-tert-butyl-1-oxa-2-azaspiro[4.5]dec-2-ene-3-carboxylic acid-4-methanesulphonylaminobenzylamide]
73.7	-0.54	76.3	-0.33					CC(C)(C)C1CCC2(CC1)CC(C(=O)Nc1cccc3cnccc13)=NO2 (stereo not shown) [Example 4, 8-tert-butyl-1-oxa-2-azaspiro[4.5]dec-2-ene-3-carboxylic acid isoquinolin-5-ylamide]
				97.15	0.57	20.73	0.22	CC(C)(C)[C@H]1CC[C@]2(CC1)CC(C(=O)N1CCN(c3ncccc3C(F)(F)F)CC1)=NO2 [Example 8, trans-(8-tert-butyl-1-oxa-2-azaspiro[4.5]dec-2-en-3-yl)-[4-(3-trifluoromethylpyridin-2-yl)piperazin-1-yl]methanone]
				22.95	8.77	17.54	2.84	CC(C)(C)[C@H]1CC[C@]2(CC1)CC(C(=O)N1CCN(c3ccc(O)cc3)CC1)=NO2 [Example 10, trans-(8-tert-butyl-1-oxa-2-azaspiro[4.5]dec-2-en-3-yl)-[4-(4-hydroxyphenyl)piperazin-1-yl]methanone]
				62.42	−0.37	28.56	−0.05	CC(C)(C)[C@H]1CC[C@@]2(CC1)CC(C(=O)N1CCN(c3ccc(O)cc3)CC1)=NO2 [Example 11, cis-(8-tert-butyl-1-oxa-2-azaspiro[4.5]dec-2-en-3-yl)-[4-(4-hydroxyphenyl)piperazin-1-yl]methanone]
94.3	112	79.9	101					CC(C)(C)C1CCC2(CC1)CC(C(=O)N1CCc3cc(O)c(O)cc3C1)=NO2 (stereo not shown) [Example 12, (8-tert-butyl-1-oxa-2-azaspiro[4.5]dec-2-en-3-yl)-(6,7-dihydroxy-3,4-dihydro-1H-isoquinolin-2-yl)methanone]
				58.92	0.33	14.95	−0.05	CC(C)(C)[C@H]1CC[C@@]2(CC1)CC(C(=O)N1CCN(c3nsnc3Cl)CC1)=NO2 [Example 17, cis-(8-tert-butyl-1-oxa-2-azaspiro[4.5]dec-2-en-3-yl)-[4-(4-chloro-[1,2,5]thiadiazol-3-yl)piperazin-1-yl]methanone]
				97.62	84.04	22.05	24.24	COc1cc2c(cc1OC)CN(C(=O)C1=NO[C@]3(CC[C@H](C(C)(C)C)CC3)C1)CC2 [Example 18, trans-(8-tert-butyl-1-oxa-2-azaspiro[4.5]dec-2-en-3-yl)-(6,7-dimethoxy-3,4-dihydro-1H-isoquinolin-2-yl)methanone]
				95.49	70.81	22.55	13.41	COc1cc2c(cc1OC)CN(C(=O)C1=NO[C@]3(CC[C@@H](C(C)(C)C)CC3)C1)CC2 [Example 19, cis-(8-tert-butyl-1-oxa-2-azaspiro[4.5]dec-2-en-3-yl)-(6,7-dimethoxy-3,4-dihydro-1H-isoquinolin-2-yl)methanone]
				52.32	0.37	6.75	−0.05	CC(C)(C)C1CCC2(CC1)CC(C(=O)N1CCCN(c3ncccc3Cl)CC1)=NO2 (stereo not drawn) [Example 21, trans-(8-tert-butyl-1-oxa-2-azaspiro[4.5]dec-2-en-3-yl)-[4-(3-chloropyridin-2-yl)-[1,4]diazepan-1-yl]methanone]
				16.63	−0.37	0.14	0.13	CC(C)(C)[C@H]1CC[C@@]2(CC1)CC(C(=O)N1CCCN(c3ncccc3Cl)CC1)=NO2 [Example 22, cis-(8-tert-butyl-1-oxa-2-azaspiro[4.5]dec-2-en-3-yl)-[4-(3-chloropyridin-2-yl)-[1,4]diazepan-1-yl]methanone]

From patent US7981883B2, “Substituted spiro-compounds and the use thereof for producing medicaments” (Gruenenthal GmbH, priority 2005, dated 2011)
